# Where two headings read alike, the source gives them in different places.
# Experiments:
# [1] = tested on: P. aeruginosa PA-14; experiment: MIC determination assay / antibacterial activity; format: cell-based; details: Pseudomonas aeruginosa, PA14
# Experimental: Assays regarding the determination of the minimum inhibitory concentration (MIC) were performed as described previously (Elgaher W A M, Fruth M, Groh M, Haupenthal J, Hartmann R W. Expanding the scaffold for bacterial RNA polymerase inhibitors: design, synthesis and structure-activity relationships of ureido-heterocyclic-carboxylic acids. RSC Adv. 2013 Dec. 3; 4(5):2177-94). The experiments were based on the P. aeruginosa strain PA14. For the case that no MIC value could be determined due to activity reasons, percentage (%) inhibition at 100 μM (or lower, depending on the solubility of the compounds) was calculated. The OD600 was measured 0 and 16 h after inhibitor addition in a CLARIOstar Platereader (BMG Labtech, Ortenberg, Germany).
# [2] = target: MMP1 (Homo sapiens (Human), UniProt P03956); experiment: Selectivity assay: inhibition of MMPs; format: biochemical
# Experimental: (§1) MMPs-1, -2, -3, -7, -8 and -14 along with the SensoLyte 520 Generic MMP Activity Kit*Fluorimetric* were purchased from AnaSpec (Fremont, CA, USA). The assay was performed as described previously (Schönauer E, Kany A M, Haupenthal J, Hüsecken K, Hoppe I J, Voos K, et al. Discovery of a Potent Inhibitor Class with High Selectivity toward Clostridial Collagenases. J Am Chem Soc. 2017 Sep. 13; 139(36):12696-703) using batimastat as a positive control according to the guidelines of the manufacturer.
# [3] = target: MMP2 (Homo sapiens (Human), UniProt P08253); experiment: Selectivity assay: inhibition of MMPs; format: biochemical
# Sequence of MMP2 (P08253 110-660): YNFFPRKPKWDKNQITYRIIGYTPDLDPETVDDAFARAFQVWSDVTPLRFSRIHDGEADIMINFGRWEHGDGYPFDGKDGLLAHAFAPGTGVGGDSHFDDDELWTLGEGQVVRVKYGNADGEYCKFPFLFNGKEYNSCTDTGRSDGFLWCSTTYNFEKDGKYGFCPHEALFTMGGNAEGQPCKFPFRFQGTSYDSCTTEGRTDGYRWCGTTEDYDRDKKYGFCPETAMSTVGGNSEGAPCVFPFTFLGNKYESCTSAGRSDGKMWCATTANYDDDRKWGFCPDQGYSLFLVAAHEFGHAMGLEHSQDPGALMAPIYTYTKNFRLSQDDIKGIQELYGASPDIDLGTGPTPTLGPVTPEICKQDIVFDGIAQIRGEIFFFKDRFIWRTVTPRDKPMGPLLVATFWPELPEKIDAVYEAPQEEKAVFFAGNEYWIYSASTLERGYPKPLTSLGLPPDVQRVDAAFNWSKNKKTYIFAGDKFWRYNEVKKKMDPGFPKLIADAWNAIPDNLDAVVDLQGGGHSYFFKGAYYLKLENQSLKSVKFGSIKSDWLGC
# Experimental: as §1
# [4] = target: MMP3 (Homo sapiens (Human), UniProt P08254); experiment: Selectivity assay: inhibition of MMPs; format: biochemical
# Sequence of MMP3 (P08254 100-477): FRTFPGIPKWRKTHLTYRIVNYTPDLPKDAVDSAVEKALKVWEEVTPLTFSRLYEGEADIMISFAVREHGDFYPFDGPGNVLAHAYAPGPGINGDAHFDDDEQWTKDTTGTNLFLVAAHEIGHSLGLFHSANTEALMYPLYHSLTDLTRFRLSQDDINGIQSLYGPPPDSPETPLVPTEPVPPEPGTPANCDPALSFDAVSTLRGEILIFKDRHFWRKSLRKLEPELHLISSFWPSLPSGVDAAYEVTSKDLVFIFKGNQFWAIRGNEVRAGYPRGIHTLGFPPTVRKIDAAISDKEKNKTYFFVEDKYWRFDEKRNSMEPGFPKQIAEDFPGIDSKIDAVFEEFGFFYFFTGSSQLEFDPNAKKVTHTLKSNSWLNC
# Experimental: as §1
# [5] = target: ADAM-17 (TACE) (Homo sapiens (Human), UniProt P78536); experiment: ADAM-17 (TACE) inhibitor screening assay; format: biochemical; details: read-out: Selectivity IC50 TACE
# Sequence of ADAM-17 (TACE) (P78536 whole entry, looked up): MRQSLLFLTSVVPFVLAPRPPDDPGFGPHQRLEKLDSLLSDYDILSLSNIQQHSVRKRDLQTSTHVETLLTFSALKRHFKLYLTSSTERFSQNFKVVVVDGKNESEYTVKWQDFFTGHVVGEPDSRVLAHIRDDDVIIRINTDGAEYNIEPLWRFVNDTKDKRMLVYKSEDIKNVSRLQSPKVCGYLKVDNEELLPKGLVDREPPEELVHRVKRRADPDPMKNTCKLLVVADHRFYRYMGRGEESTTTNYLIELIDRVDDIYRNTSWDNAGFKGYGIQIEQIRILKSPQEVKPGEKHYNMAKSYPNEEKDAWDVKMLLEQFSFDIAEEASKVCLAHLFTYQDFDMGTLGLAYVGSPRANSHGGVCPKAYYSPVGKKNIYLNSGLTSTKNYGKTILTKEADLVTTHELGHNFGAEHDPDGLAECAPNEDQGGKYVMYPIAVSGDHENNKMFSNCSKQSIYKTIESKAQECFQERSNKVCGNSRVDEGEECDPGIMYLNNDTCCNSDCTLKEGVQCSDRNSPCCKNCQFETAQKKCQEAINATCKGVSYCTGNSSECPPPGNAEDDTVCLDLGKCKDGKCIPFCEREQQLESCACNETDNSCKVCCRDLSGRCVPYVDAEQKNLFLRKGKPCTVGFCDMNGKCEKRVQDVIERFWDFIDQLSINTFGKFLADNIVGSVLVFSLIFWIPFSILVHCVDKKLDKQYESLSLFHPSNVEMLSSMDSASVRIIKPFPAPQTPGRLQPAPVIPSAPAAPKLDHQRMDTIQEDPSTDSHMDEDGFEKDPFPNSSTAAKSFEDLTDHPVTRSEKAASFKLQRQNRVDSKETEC
# Experimental: The ADAM-17 (TACE) Inhibitor Screening Assay Kit was purchased from Sigma-Aldrich. The assay was performed according to the guidelines of the manufacturer using ilomastat as a positive control. Fluorescence signals were measured in a CLARIOstar plate reader (BMG Labtech).
# [6] = target: LasB (Pseudomonas aeruginosa (strain ATCC 15692 / DSM 22644 / CIP 104116 / JCM 14847 / LMG 12228 / 1C / PRS 101 / PAO1), UniProt P14756); experiment: In vitro LasB activity assay (fluorogenic substrate); format: biochemical; details: LasB 0.3 nM, substrate 150 μM, mean ± SD
# Sequence of LasB (P14756 198-498): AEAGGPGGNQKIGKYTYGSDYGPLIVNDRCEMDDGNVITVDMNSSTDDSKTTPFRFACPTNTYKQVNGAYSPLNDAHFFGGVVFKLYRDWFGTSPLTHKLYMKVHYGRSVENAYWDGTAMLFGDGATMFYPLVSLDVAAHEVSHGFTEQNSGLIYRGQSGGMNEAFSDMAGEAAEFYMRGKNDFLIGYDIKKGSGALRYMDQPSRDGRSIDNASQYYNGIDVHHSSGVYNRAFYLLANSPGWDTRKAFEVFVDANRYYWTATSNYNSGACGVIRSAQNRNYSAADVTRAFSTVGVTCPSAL
# Experimental: The LasB activity assay was performed as described previously (Nishino N, Powers J C. Pseudomonas aeruginosa elastase. Development of a new substrate, inhibitors, and an affinity ligand. J Biol Chem. 1980 Apr. 25; 255(8):3482-6) using the fluorogenic substrate 2-Aminobenzoyl-L-Alanyl-Glycyl-L-Leucyl-L-Alanyl-para-Nitro-Benzyl-Amide, purchased from Peptides International (Louisville, KY, USA) and vivitide, LLC (Gardner, MA, USA).
# Fluorescence intensity was measured for 60 min at 37° C. in black 384-well microtiter plates (Greiner BioOne, Kremsmünster, Austria) using a CLARIOstar microplate reader (BMG Labtech, Ortenberg, Germany) with an excitation wavelength of […] and an emission wavelength of 415±20 nm. The assay was performed in a final volume of 50 μL of assay buffer (50 mM Tris, pH 7.2, 2.5 mM CaCl2), 0.075% Pluronic F-127, 5% DMSO) containing LasB at a final concentration of […] 0.3 nM and the substrate at 150 μM. Before substrate addition, compounds were preincubated with the enzyme at 37° C. for 15 min. Experiments were performed in duplicates and repeated for at least two times. Blank controls without enzyme were performed. After blank subtraction, the slope of samples containing inhibitors (v) was divided by the slope of a simultaneously started uninhibited enzymatic reaction (v0). IC50 values were determined with nonlinear regression using GraphPad Prism 5 (Graph Pad Software, San Diego, CA, USA) and are given as mean values ±standard deviation (SD). The slope factor was constrained to 1.
# [7] = Cytotoxicity assay; format: cell-based; details: human
# Experimental: HepG2, HEK293 or A549 cells (2×10^5 cells per well) were seeded in 24-well, flat-bottomed plates. Culturing of cells, incubations, and OD measurements were performed as described previously (Int. J. Cancer 2007, 121, 206-210). Twenty-four hours after seeding the cells, the incubation was started by the addition of test compound in a final DMSO concentration of 1%. The living cell mass was determined after 48 h. At least two independent measurements were performed for each compound.
# [8] = target: HDAC8 (Homo sapiens (Human), UniProt Q9BY41); experiment: HDAC inhibition; format: biochemical; details: read-out: Selectivity IC50 HDAC8
# Experimental: (§2) HDAC3 and HDAC8 Inhibitor Screening Assay kits were purchased from Sigma-Aldrich. The assay was performed according to the guidelines of the manufacturer using trichostatin as a positive control. Fluorescence signals were measured in a CLARIOstar plate reader (BMG Labtech).
# [9] = target: HDAC3 (Homo sapiens (Human), UniProt O15379); experiment: HDAC inhibition; format: biochemical; details: read-out: Selectivity IC50 HDAC3
# Sequence of HDAC3 (O15379 whole entry, looked up): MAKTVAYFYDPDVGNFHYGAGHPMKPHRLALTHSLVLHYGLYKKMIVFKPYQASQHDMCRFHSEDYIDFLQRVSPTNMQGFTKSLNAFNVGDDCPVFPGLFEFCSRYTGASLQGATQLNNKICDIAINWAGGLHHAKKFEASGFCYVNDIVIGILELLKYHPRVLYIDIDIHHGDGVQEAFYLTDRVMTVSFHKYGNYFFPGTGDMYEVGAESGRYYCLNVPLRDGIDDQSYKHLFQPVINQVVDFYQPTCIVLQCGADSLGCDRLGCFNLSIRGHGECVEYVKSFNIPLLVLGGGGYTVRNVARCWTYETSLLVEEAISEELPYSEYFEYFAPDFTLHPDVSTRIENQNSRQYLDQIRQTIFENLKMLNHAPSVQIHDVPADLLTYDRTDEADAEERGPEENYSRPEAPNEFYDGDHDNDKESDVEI
# Sequence of HDAC3 (Q9Y618 whole entry partner, looked up): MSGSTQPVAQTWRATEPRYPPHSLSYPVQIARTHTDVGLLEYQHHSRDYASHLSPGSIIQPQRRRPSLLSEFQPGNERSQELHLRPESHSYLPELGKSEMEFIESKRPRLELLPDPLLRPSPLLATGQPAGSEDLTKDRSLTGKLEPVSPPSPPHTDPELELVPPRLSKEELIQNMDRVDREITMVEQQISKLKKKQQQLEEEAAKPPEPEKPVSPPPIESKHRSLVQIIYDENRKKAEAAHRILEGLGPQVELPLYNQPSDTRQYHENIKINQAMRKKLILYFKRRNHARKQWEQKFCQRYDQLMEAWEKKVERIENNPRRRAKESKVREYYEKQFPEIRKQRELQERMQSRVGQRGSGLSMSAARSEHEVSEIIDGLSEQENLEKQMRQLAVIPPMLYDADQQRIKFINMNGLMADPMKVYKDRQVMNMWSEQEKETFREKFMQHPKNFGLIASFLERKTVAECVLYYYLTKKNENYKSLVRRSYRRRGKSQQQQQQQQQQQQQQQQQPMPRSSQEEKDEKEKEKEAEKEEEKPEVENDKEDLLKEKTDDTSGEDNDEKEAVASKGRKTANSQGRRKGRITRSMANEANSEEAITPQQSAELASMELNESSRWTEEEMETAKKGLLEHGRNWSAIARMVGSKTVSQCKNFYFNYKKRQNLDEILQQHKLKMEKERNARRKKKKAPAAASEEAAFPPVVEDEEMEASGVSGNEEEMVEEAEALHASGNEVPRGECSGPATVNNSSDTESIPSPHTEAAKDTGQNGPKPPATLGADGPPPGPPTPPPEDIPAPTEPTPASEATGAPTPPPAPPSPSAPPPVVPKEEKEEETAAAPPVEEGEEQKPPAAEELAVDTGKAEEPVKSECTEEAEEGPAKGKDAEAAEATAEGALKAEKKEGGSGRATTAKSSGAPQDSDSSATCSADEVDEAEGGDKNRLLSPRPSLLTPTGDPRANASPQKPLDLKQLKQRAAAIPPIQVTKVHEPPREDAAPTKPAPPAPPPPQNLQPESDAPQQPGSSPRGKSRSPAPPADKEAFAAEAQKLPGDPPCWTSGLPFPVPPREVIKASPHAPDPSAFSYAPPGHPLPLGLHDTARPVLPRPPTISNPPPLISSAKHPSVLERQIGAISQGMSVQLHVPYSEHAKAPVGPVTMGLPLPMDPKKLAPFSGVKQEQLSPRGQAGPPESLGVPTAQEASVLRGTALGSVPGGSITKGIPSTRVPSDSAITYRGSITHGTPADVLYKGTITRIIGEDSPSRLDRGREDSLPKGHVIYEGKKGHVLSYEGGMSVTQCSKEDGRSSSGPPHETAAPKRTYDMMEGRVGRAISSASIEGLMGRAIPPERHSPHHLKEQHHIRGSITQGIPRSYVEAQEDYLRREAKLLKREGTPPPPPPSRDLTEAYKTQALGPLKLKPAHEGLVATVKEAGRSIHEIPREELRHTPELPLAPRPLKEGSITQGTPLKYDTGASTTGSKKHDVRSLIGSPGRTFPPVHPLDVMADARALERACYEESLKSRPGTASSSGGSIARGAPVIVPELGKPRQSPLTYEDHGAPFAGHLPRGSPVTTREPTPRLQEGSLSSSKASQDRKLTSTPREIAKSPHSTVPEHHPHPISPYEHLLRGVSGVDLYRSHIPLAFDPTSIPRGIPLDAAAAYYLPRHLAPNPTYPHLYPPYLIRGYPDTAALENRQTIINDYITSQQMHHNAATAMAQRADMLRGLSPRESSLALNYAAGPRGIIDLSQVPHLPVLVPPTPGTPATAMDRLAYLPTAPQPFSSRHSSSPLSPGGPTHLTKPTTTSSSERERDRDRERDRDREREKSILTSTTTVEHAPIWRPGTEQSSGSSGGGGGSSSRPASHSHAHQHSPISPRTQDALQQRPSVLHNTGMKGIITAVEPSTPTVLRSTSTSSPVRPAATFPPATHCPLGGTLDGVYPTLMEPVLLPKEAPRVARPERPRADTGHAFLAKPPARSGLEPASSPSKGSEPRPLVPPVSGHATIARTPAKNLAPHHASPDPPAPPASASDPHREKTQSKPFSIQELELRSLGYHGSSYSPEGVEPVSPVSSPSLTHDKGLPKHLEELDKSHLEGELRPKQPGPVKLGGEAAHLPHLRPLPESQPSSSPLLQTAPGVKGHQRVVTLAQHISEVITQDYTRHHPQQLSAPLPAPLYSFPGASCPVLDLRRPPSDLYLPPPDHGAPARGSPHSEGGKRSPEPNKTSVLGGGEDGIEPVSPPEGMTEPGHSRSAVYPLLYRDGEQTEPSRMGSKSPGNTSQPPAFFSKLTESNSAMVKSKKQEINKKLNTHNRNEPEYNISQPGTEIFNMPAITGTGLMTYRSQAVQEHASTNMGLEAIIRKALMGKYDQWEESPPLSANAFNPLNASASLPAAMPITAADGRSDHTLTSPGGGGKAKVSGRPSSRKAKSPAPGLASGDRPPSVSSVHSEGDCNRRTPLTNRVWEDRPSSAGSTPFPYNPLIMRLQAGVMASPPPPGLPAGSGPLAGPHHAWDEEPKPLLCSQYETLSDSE
# Experimental: as §2
# [10] = in vitro; format: in vitro ADME; details: mouse, s9
# Experimental: For the evaluation of combined phase I and phase II metabolic stability, the compound (1 μM) was incubated with 1 mg/mL pooled liver S9 fraction (Xenotech), 2 mM NADPH, 1 mM UDPGA, 10 mM MgCl2, 5 mM GSH and 0.1 mM PAPS at 37° C. for 0, 5, 15, 30 and 60 min. The metabolic stability of Testosterone (1 μM), verapamil (1 μM) and ketoconazol (1 μM) were determined in parallel to confirm the enzymatic activity of the S9 fraction. The incubation was stopped by precipitation of S9 enzymes with 2 volumes of cold acetonitrile containing internal standard (150 nM Diphenhydramine). Samples were stored on ice for 10 min and precipitated protein was removed by centrifugation (15 min, 4° C., 4,000 rpm). The remaining test compound at different time points was analyzed by LC-MS/MS (TSQ Quantum Access MAX, Thermo Fisher, Dreieich, Germany) and used to determine half-life (t½).
# [11] = Kinetic turbidimetric solubility assay; format: physicochemical; details: PBS, aqueous buffer, kinetic from dmso stock
# Experimental: The desired compounds were sequentially diluted in DMSO in a 96-well plate. 1.5 μL of each well were transferred into another 96-well plate and mixed with 148.5 μL of PBS. Plates were shaken for 5 min at 600 rpm at room temperature, and the absorbance at 620 nm was measured. Absorbance values were normalized by blank subtraction and plotted using GraphPad Prism 8.4.2 (GraphPad Software, San Diego, CA, USA). Solubility (S) was determined based on the First X value of AUC function using a threshold of 0.005.
# [12] = tested on: P. aeruginosa PAO1 (strain DSM22644); experiment: G. mellonella larvae survival after PAO1 infection; format: in vivo; details: for Final survival percentage of larvae: 3 CFU/Larva, 24 h
# Experimental: Bacteria were grown overnight, diluted to OD600 of 0.025 in 10 ml medium, and grown for approx. 2 hours at 37° C. inside a shaker incubator until the OD600 of 1.8-2 is reached. The culture was then serially diluted in sterile PBS (pH=7.2). Bacterial densities of 3000, 300, 30, and 3 CFU/Larva were selected for injection into groups of 15 larvae. A total volume of 5 μl was injected into each larva via the hindmost left proleg by using a syringe pump and Sterican® needles (0.30×12 mm, 30G×½). In addition, control group without injection for the quality of the larvae and a PBS control to monitor the effect of the injection were included in the experiment. All test groups and control groups were incubated at 37° C. in the dark and monitored every 2 hours from 17 hours post-infection.
# In vivo evaluation of compounds 162 and 169. Bacteria were cultured and prepared according to the previous section. Final concentrations of 50 μM, 25 μM, and 12.5 μM in combination with 3 CFU/Larva were injected into groups of 15 larvae. In addition to no injection and PBS controls, one group was infected with 3 CFU/Larva and considered the negative control. All test groups and control groups were incubated at 37° C. in the dark and monitored every 2 hours from 17 hours post-infection.
smiles,measurement,setting,value
"CC(C)CC(C(=O)NO)C(=O)Nc1ccc(CN=[N+]=[N-])cc1 (stereo not drawn) [Compound Z9, N-[4-(Azidomethyl)phenyl]-2-(hydroxycarbamoyl)-4-methyl-pentanamide]",IC50,[1],> 100000 nM
same,IC50,[2]; read-out: Selectivity IC50 MMP1,> 100000 nM
same,IC50,[3],> 100000 nM
same,IC50,[4],> 100000 nM
same,IC50,[5],1600 ± 200 nM
same,IC50,[6],16.9 ± 0.6 nM
same,IC50 at 48 h,[7]; A549 cells,> 100000 nM
same,IC50 at 48 h,[7]; HEK293 cells,> 100000 nM
same,IC50 at 48 h,[7]; HepG2 cells,> 100000 nM
same,IC50,[8],> 100000 nM
same,IC50,[9],> 100000 nM
"CC(C)CC(C(=O)NO)C(=O)Nc1ccc(Cn2cc(CN(C)S(=O)(=O)c3ccc(I)cc3)nn2)cc1 (stereo not drawn) [Compound 131, 2-(Hydroxycarbamoyl)-N-[4-[[4-[[(4-iodophenyl)sulfonyl-methyl-amino]methyl]triazol-1-yl]methyl]phenyl]-4-methyl-pentanamide]",half-life at 1 μM,[10],37.5 ± 2.5 min
same,IC50,[6],2.3 ± 0.1 nM
same,solubility at 5 min,[11],< 200 µM
"CC(C)CC(C(=O)NO)C(=O)Nc1ccc(Cn2cc(CSc3ccc(Cl)cc3)nn2)cc1 (stereo not drawn) [Compound 136, N-[4-[[4-[(4-Chlorophenyl)sulfanylmethyl]triazol-1-yl]methyl]phenyl]-2-(hydroxycarbamoyl)-4-methyl-pentanamide]",half-life at 1 μM,[10],3.3 ± 0.2 min
same,IC50,[6],1.4 ± 0.1 nM
same,solubility at 5 min,[11],< 200 µM
"CC(C)CC(C(=O)NO)C(=O)Nc1ccc(Cn2cc(CNS(=O)(=O)c3ccc(F)cc3)nn2)cc1 (stereo not drawn) [Compound 160, N-[4-[[4-[[(4-Fluorophenyl)sulfonylamino]methyl]triazol-1-yl]methyl]phenyl]-2-(hydroxycarbamoyl)-4-methyl-pentanamide]",half-life at 1 μM,[10],65.5 ± 0.7 min
same,IC50,[1],> 100000 nM
same,IC50,[2],> 100000 nM
same,IC50,[3],> 100000 nM
same,IC50,[4],> 100000 nM
same,IC50,[5],> 100000 nM
same,IC50,[6],3.8 ± 0.1 nM
same,solubility at 5 min,[11],> 200 µM
same,IC50 at 48 h,[7]; A549 cells,> 100000 nM
same,IC50 at 48 h,[7]; HEK293 cells,> 100000 nM
same,IC50 at 48 h,[7]; HepG2 cells,> 100000 nM
same,IC50,[8],> 100000 nM
same,IC50,[9],> 100000 nM
"COc1ccc(S(=O)(=O)NCc2cn(Cc3ccc(NC(=O)C(CC(C)C)C(=O)NO)cc3)nn2)cc1 (stereo not drawn) [Compound 162, 2-(Hydroxycarbamoyl)-N-[4-[[4-[[(4-methoxyphenyl)sulfonylamino]methyl]triazol-1-yl]methyl]phenyl]-4-methyl-pentanamide]",IC50,[6],1.9 ± 0.1 nM
same,Final survival percentage of larvae,[12]; 12.5 μM,58%
same,Final survival percentage of larvae,[12]; 25 μM,64%
same,Final survival percentage of larvae,[12]; 50 μM,84%
same,Improvement in survival of larvae compared to negative control,"[12]; 50 μM, vs 3 CFU/Larva without treatment",40%
"CC(C)CC(C(=O)NO)C(=O)Nc1ccc(Cn2cc(CNS(=O)(=O)c3ccc(Cl)c(Cl)c3)nn2)cc1 (stereo not drawn) [Compound 165, N-[4-[[4-[[(3,4-Dichlorophenyl)sulfonylamino]methyl]triazol-1-yl]methyl]phenyl]-2-(hydroxycarbamoyl)-4-methyl-pentanamide]",half-life at 1 μM,[10],10.7 ± 0.6 min
same,IC50,[6],1.6 ± 0.1 nM
same,solubility at 5 min,[11],117 µM
"CC(C)CC(C(=O)NO)C(=O)Nc1ccc(Cn2cc(CNS(=O)(=O)c3ccc(-c4ccccc4)cc3)nn2)cc1 (stereo not drawn) [Hit L3, 2-(Hydroxycarbamoyl)-4-methyl-N-[4-[[4-[[(4-phenylphenyl)sulfonylamino]methyl]triazol-1-yl]methyl]phenyl]pentanamide]",IC50,[6],13.9 ± 0.3 nM
"CC(C)CC(C(=O)NO)C(=O)Nc1ccc(Cn2cc(CNS(=O)(=O)c3ccc(OC(C)C)cc3)nn2)cc1 (stereo not drawn) [Compound 206, 2-(hydroxycarbamoyl)-N-[4-[[4-[[(4-isopropoxyphenyl)sulfonylamino]methyl]triazol-1-yl]methyl]phenyl]-4-methyl-pentanamide]",IC50,[6],7.8 ± 0.3 nM
"O=C(NO)C(CC1CC1)C(=O)Nc1ccc(Cn2cc(CNS(=O)(=O)c3ccc(I)cc3)nn2)cc1 (stereo not drawn) [Compound 183, 2-(Cyclopropylmethyl)-3-(hydroxyamino)-N-[4-[[4-[[(4-iodophenyl)sulfonylamino]methyl]triazol-1-yl]methyl]phenyl]-3-oxo-propanamide]",IC50,[6],9.9 ± 0.3 nM
"O=C(NO)C(Cc1ccccc1)C(=O)Nc1ccc(Cn2cc(CNS(=O)(=O)c3ccc(I)cc3)nn2)cc1 (stereo not drawn) [Compound 179, 2-Benzyl-3-(hydroxyamino)-N-[4-[[4-[[(4-iodophenyl)sulfonylamino]methyl]triazol-1-yl]methyl]phenyl]-3-oxo-propanamide]",IC50,[6],1 ± 0.6 nM

# — US20250170104A1, “INHIBITORS OF PSEUDOMONAS AERUGINOSA VIRULENCE FACTOR Lasß” (priority 2022, published 2025)
